From patent publication EP2712863B1, “Novel inhibitors of bacterial biofilms and related methods” (Sequoia Sciences, Inc., priority 2012, dated 2014) come the findings set out here.

For data set [1], the system named is P. aeruginosa. As to the kind of experiment: Biofilm growth assay (spreading biofilm on semi-solid agar). Type of data set: cell-based. The arrangement: P. aeruginosa (n=10): unit not given here. Conditions: for P. aeruginosa (n=10): Table 6, inhibitory concentration in the biofilm growth assay, n = number of isolates tested; for IC85: Pseudomonas aeruginosa, read-out: P. aeruginosa.

Data set [2] concerns E. coli. The data set is described as above. Type of data set: cell-based. The arrangement: E. coli (n=10): unit: ug/mL. As to conditions: for E. coli (n=10): Table 6, inhibitory concentration in the biofilm growth assay, n = number of isolates tested; for IC85: Escherichia coli, read-out: E. coli. In short, it runs like this:
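Spreading (swarming) biofilm on semi-solid agar: E. coli on LB with 0.6% agar and 0.5% glucose; P. aeruginosa on M8 agar with 0.2% glucose, 100 µM CaCl2, 1 mM MgSO4, 0.5% Casamino acids. Compound in medium; 5 µL overnight culture spotted centrally, 37°C overnight. Value: concentration (µg/ml) giving ≥85% reduction in spread area versus negative control.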

In data set [3] the test system is Burkholderia cepacia. Put plainly: Biofilm growth assay, multiple isolates. Conditions: Table 6; inhibitory concentration in the biofilm growth assay; n = number of isolates tested. Type of data set: cell-based. Here is the method:
(§1) The biofilm growth assay was carried out to measure swarming or biofilm spreading on semi-solid agar media in round plates (for example, 100 × 15 mm), also referred to as Petri dishes. For E. coli, the plates contained LB medium with 0.6% agar and 0.5% glucose. P. aeruginosa plates were made with M8 agar supplemented with 0.2% glucose, 100 µM CaCl2, 1 mM MgSO4, and 0.5% Casamino acids. The agar plates of this assay consisted of 0.4% to 0.7% agar (Bacto or Noble agar), although other media may also be used as described in the literature and known to those skilled in the art. Test compounds at the desired concentration were added to the cooled, autoclaved media. Portions of the media were then poured into the plates (20 mL/plate), and the plates allowed to dry at room temperature for approximately 3 to 4 hours. Alternatively, however, plates may be dried in a laminar flow hood for approximately fifteen to twenty minutes. Overnight cultures were grown in a 37°C shaker in LB (E. coli) or TSB (P. aeruginosa). Plates were inoculated by placing 5 µL of the appropriate overnight culture in the centers of the plates. The plates then were incubated overnight at 37°C. The area of the zone of spreading bacteria was then measured and replicates are averaged. Percent inhibition was calculated as 100 × (area without compound - area with compound)/(area without compound). An active compound was considered that which reduces the area of the spreading biofilm compared to negative controls by greater than or equal to 85%. The values shown in Table 1 are the concentrations of compounds (µg/ml) tested in the biofilm growth assay that reduce the area of the spreading biofilm compared to negative controls by greater than or equal to 85% unless noted differently in Table 1. A > ("greater than" symbol) as used in Table 1 is well understood to those skilled in the art as an indication that the listed concentration was not effective at this concentration.
(§2) Table 6, below, lists the inhibitory concentrations of select compounds and antibiotics in the biofilm growth assay against various gram-negative bacterial biofilms. "N" means the number of isolates of bacteria tested. The biofilm growth assay procedure detailed in Example I, above, was followed. Burkholderia cepacia used media consisting of M9 salts, 100 µM CaCl2, 1 mM MgS04, and 0.7% citrate in 0.4% Noble agar. Salmonella spp. used media consisting of Nutrient Broth with 0.5% glucose in 0.5% Noble agar.

Data set [4] relates to Salmonella spp. Put plainly: Biofilm growth assay, multiple isolates. Type of data set: cell-based. Conditions: Table 6; inhibitory concentration in the biofilm growth assay; n = number of isolates tested. Here is the method:
as §1, §2

The nature of data set [5]: Bioavailability in mice (serum level after oral or IP administration). Type of data set: in vivo. Conditions: orally or via IP injection at approximately 20 mg/kg to 50 mg/kg; 30 minutes or 1 hour after administration. The procedure:
The bioavailabilities of certain compounds were examined in mice. Administration of the compounds was performed orally and by intraperitoneal (IP) injection using a vehicle as known to those skilled in the art. Many vehicles can be used to examine bioavailability. Prior to administration, each vehicle was optimized based on compound solubility according to the formulation research conducted by Uckun et al. (Arznelmittel-Forschung (Drug Research) 2007; 57(4):218-226). […] The concentration of PEG400 is modulated depending upon solubility of the compounds and the amount of aqueous phase added (0.02 M citrate and 0.9% NaCl).

[6] abbreviates: Table 1, concentration that reduces the area of the spreading biofilm vs negative controls by >= 85%, > means not effective at this concentration.
The mark [7] stands for this setting: Table 2, concentration that reduces the area of the spreading biofilm by >= 85%.
Setting [8] is: Table 3, concentration that reduces the area of the spreading biofilm by >= 85%.
[9] abbreviates: Table 4, concentration that reduces the area of the spreading biofilm by >= 85%.

≈ marks a conversion by molar mass, not a printed value. Read-outs that look alike come from different tables or passages of the source.

In the case of `CC(C)(O/N=C(\C(=O)N[C@@H]1C(=O)N2C(C(=O)[O-])=C(C[n+]3ccccc3)CS[C@H]12)c1csc(N)n1)C(=O)O` [Ceftazidime, ceftazidime, reference compound], the “P. aeruginosa (n=10)” value in data set [1] was found to be 4. Further, the “E. coli (n=10)” value in data set [2] came to 0.25. Besides, in data set [3], the inhibitory concentration was greater than 8. In data set [4], the “inhibitory concentration in biofilm growth assay” value is recorded as 0.5.
For `CC1(C)CC[C@]2(C(=O)O)CC[C@]3(C)C(=CC[C@@H]4[C@@]5(C)CC[C@H](O)C(C)(C)[C@@H]5CC[C@]43C)[C@@H]2C1` [Oleanolic acid, reference compound], the IC85 in data set [1] (setting [6]) was 4 µg/mL (≈ 8.76 µM); in data set [2] (setting [6]), greater than 8 µg/mL. For the same molecule, the “P. aeruginosa (n=10)” value in data set [1] stood at 8. In data set [2], the “E. coli (n=10)” value was 16. This molecule showed an inhibitory concentration in data set [3] of 0.5. In data set [4], the “inhibitory concentration in biofilm growth assay” value is reported as greater than 64.
On to `NC[C@H]1O[C@H](O[C@H]2[C@H](O)[C@@H](O[C@H]3O[C@H](CO)[C@@H](O)[C@H](N)[C@H]3O)[C@H](N)C[C@@H]2N)[C@H](N)C[C@@H]1O` [Tobramycin, tobramcyin, reference compound], for which, in data set [1], the “P. aeruginosa (n=10)” value is recorded as 4. Besides, in data set [2], the “E. coli (n=10)” value came to 16. This molecule had an inhibitory concentration in data set [3] greater than 64. Also, the “inhibitory concentration in biofilm growth assay” value in data set [4] stood at 8.
Turning to `CC1(C)CC[C@]2(C(=O)O)CC[C@]3(C)C(=C(c4cccnc4)CC4[C@@]5(C)Cc6c(n[nH]c6N)C(C)(C)[C@@H]5CC[C@]43C)[C@@H]2C1` (stereo partly drawn) [Compound 12, (4aS,6aS,6bR,8aR,13aR,15bS)-12-Amino-2,2,6a,6b,9,9,13a-heptamethyl-15-(pyridin-3-yl)-2,3,4,4a,5,6,6a,6b,7,8,8a,9,11,13,13a,13b,14,15b-octadecahydro-1H-chryseno[1,2-f]indazole-4a-carboxylic acid], the IC85 in data set [1] (setting [7]) was 0.5 µg/mL (≈ 0.876 µM); in data set [2] (setting [7]) it was 1 µg/mL (≈ 1.75 µM). Besides, the “concentration in the serum of mice” value in data set [5] is greater than 5000 ng/mL.
As to `CC[C@H]1OC(=O)[C@H](C)[C@@H](O[C@H]2C[C@@](C)(OC)[C@@H](O)[C@H](C)O2)[C@H](C)[C@@H](O[C@@H]2O[C@H](C)C[C@H](N(C)C)[C@H]2O)[C@](C)(O)C[C@@H](C)CN(C)[C@H](C)[C@@H](O)[C@]1(C)O` [Azithromycin, azithromycin], the “P. aeruginosa (n=10)” value in data set [1] was greater than 16. For the same molecule, the inhibitory concentration in data set [3] was greater than 16. The “inhibitory concentration in biofilm growth assay” value in data set [4] is listed as greater than 16.
As to `CC1(C)CC[C@]2(C(=O)O)CC[C@]3(C)C(=C(c4coc(CN5CCOCC5)c4)CC4[C@@]5(C)Cc6c(n[nH]c6N)C(C)(C)[C@@H]5CC[C@]43C)[C@@H]2C1` (stereo partly drawn) [Compound 40, (4aS,6aS,6bR,8aR,13aR,15bS)-12-Amino-2,2,6a,6b,9,9,13a-heptamethyl-15-(5-(morpholinomethyl)furan-3-yl)-2,3,4,4a,5,6,6a,6b,7,8,8a,9,11,13,13a,13b,14,15b-octadecahydro-1H-chryseno[1,2-f]indazole-4a-carboxylic acid], the values for the IC85 in data set [1] (setting [8]) and in data set [2] (setting [8]) were 0.5 µg/mL (≈ 0.759 µM) and 2 µg/mL (≈ 3.04 µM), respectively.
Turning to `CC1(C)CC[C@]2(C(=O)n3ccnc3N)CC[C@]3(C)C(=CCC4[C@@]5(C)Cc6c(n[nH]c6N)C(C)(C)C5CC[C@]43C)C2C1` (stereo partly drawn) [Compound 73, (2-Amino-1H-imidazol-1-yl)((4aS,6aS,6bR,13aR)-12-amino-2,2,6a,6b,9,9,13a-heptamethyl-2,3,4,4a,5,6,6a,6b,7,8,8a,9,11,13,13a,13b,14,15b-octadecahydro-1H-chryseno[1,2-f]indazol-4a-yl)methanone], the IC85 in data set [1] (setting [9]) and in data set [2] (setting [9]) was 1 µg/mL (≈ 1.79 µM) in each case.
Take `CC1(C)CC[C@]2(C(=O)Nc3nnc(S)s3)CC[C@]3(C)C(=CCC4[C@@]5(C)Cc6c(n[nH]c6N)C(C)(C)C5CC[C@]43C)C2C1` (stereo partly drawn) [Compound 74, (4aS,6aS,6bR,13aR)-12-Amino-N-(5-mercapto-1,3,4-thiadiazol-2-yl)-2,2,6a,6b,9,9,13a-heptamethyl-2,3,4,4a,5,6,6a,6b,7,8,8a,9,11,13,13a,13b,14,15b-octadecahydro-1H-chryseno[1,2-f]indazole-4a-carboxamide]: the IC85 is 1 µg/mL (≈ 1.64 µM) in data set [1] (setting [9]) and greater than 2 µg/mL in data set [2] (setting [9]).
As for `CC1(C)CC[C@]2(C(=O)O)CC[C@]3(C)C(=C(c4ccoc4CN4CCOCC4)CC4[C@@]5(C)Cc6c(n[nH]c6N)C(C)(C)[C@@H]5CC[C@]43C)[C@@H]2C1` (stereo partly drawn) [Compound 32, (4aS,6aS,6bR,8aR,13aR,15bS)-12-Amino-2,2,6a,6b,9,9,13a-heptamethyl-15-(2-(morpholinomethyl)furan-3-yl)-2,3,4,4a,5,6,6a,6b,7,8,8a,9,11,13,13a,13b,14,15b-octadecahydro-1H-chryseno[1,2-f]indazole-4a-carboxylic acid], the IC85 in data set [1] (setting [8]) amounted to 0.5 µg/mL (≈ 0.759 µM); in data set [2] (setting [8]), 1 µg/mL (≈ 1.52 µM).
On to `CC1(C)CC[C@]2(C(=O)O)CC[C@]3(C)C(=CCC4[C@@]5(C)Cc6c[nH]nc6C(C)(C)C5CC[C@]43C)C2C1` (stereo partly drawn) [D], for which the values for the IC85 in data set [1] (setting [6]) and in data set [2] (setting [6]) were 1 µg/mL (≈ 2.09 µM) and 4 µg/mL (≈ 8.36 µM), respectively.
Take `CNCCc1c([C@]23CCC(C)(C)CC2C2=CCC4[C@@]5(C)Cc6c(n[nH]c6N)C(C)(C)C5CC[C@@]4(C)[C@]2(C)CC3)n[nH]c1O` (stereo partly drawn) [Compound 86, 3-((4aS,6aS,6bR,13aR)-12-Amino-2,2,6a,6b,9,9,13a-heptamethyl-2,3,4,4a,5,6,6a,6b,7,8,8a,9,11,13,13a,13b,14,15b-octadecahydro-1H-chryseno[1,2-f]indazol-4a-yl)-4-(2-(methylamino)ethyl)-1H-pyrazol-5-ol]: the IC85 in data set [1] (setting [9]) came to 0.5 µg/mL (≈ 0.849 µM); in data set [2] (setting [9]) it was 2 µg/mL (≈ 3.4 µM).
On to `CC1(C)CC[C@]2(C(=O)O)CC[C@]3(C)C(=C(c4ccccc4N)CC4[C@@]5(C)Cc6c(n[nH]c6N)C(C)(C)C5CC[C@]43C)C2C1` (stereo partly drawn) [Compound 23, (4aS,6aS,6bR,13aR)-12-Amino-15-(2-aminophenyl)-2,2,6a,6b,9,9,13a-heptamethyl-2,3,4,4a,5,6,6a,6b,7,8,8a,9,11,13,13a,13b,14,15b-octadecahydro-1H-chryseno[1,2-f]indazole-4a-carboxylic acid], for which the IC85 is 1 µg/mL (≈ 1.71 µM) in data set [1] (setting [8]) and 2 µg/mL (≈ 3.42 µM) in data set [2] (setting [8]).
For `CN1CCN(Cc2occc2C2=C3[C@@H]4CC(C)(C)CC[C@]4(C(=O)O)CC[C@@]3(C)[C@]3(C)CC[C@H]4C(C)(C)c5n[nH]c(N)c5C[C@]4(C)C3C2)CC1` (stereo partly drawn) [Compound 36, (4aS,6aS,6bR,8aR,13aR,15bS)-12-Amino-2,2,6a,6b,9,9,13a-heptamethyl-15-(2-((4-methylpiperazin-1-yl)methyl)furan-3-yl)-2,3,4,4a,5,6,6a,6b,7,8,8a,9,11,13,13a,13b,14,15b-octadecahydro-1H-chryseno[1,2-f]indazole-4a-carboxylic acid], the IC85 in data set [1] (setting [8]) was greater than 1 µg/mL; in data set [2] (setting [8]), 2 µg/mL (≈ 2.98 µM).
